Data reported in patent US7557244B2, “Substituted biphenyl carboxylic acids and derivatives thereof” (Ortho-McNeil Pharmaceutical, Inc., priority 2006, dated 2009).
pEC50: −log10 of the molar value.

Tests used:
[1] = tested on: γ-secretase; experiment: Screening for γ-secretase-modulating activity, Aβ 42 in SKNBE2 cells carrying APP 695-wild type; type: cell-based; conditions: read-out: WTAPP SKNBE2 Aβ 42 EC50
Method: Screening of the Compounds of the Invention for γ-Secretase-Modulating Activity
Screening was carried out using SKNBE2 cells carrying the APP 695-wild type, grown in DMEM/NUT-mix F12 (HAM) provided by Gibco (cat no. 31330-38) containing 5% Serum/Fe supplemented with 1% non-essential amino acids.
Cells were grown to near confluency.
The screening was performed using the assay as described in Citron et al (1997) Nature Medicine 3: 67.
IC50-Values of Selected Compounds of the Invention on the γ-Secretase Activity.

[2] = tested on: Aβ 42; experiment: In vivo Aβ 42 lowering, mouse; conditions: oral dose 30 mg/kg at 4 hr time point
Source text: (§1) To determine whether acute administration of an Aβ42 lowering agent would reduce Aβ42 levels in vivo, non-transgenic rodents, e.g. mice or rats can be used. Alternatively, two to three month old Tg2576 mice expressing APP695 containing the “Swedish” variant can be used or a transgenic mouse model developed by Dr. Fred Van Leuven (K. U. Leuven, Belgium) and co-workers, with neuron-specific expression of a clinical mutant of the human amyloid precursor protein [V717I] (Moechars et al., 1999 J. Biol. Chem. 274, 6483). […] Animals of this age have high levels of Aβ in the brain but no detectable Aβ deposition. Mice treated with the Aβ42 lowering agent will be examined and compared to those untreated or treated with vehicle and brain levels of soluble Aβ42 and total Aβ would be quantitated by standard techniques, for example, using ELISA. Treatment periods may vary from hours to days and will be adjusted based on the results of the Aβ42 lowering once a time course of onset of effect can be established.
A typical protocol for measuring Aβ42 lowering in vivo is shown but it is only one of many variations that could be used to optimize the levels of detectable Aβ. For example, aliquots of compounds can be dissolved in DMSO (volume equal to 1/10th of the final formulation volume), vortexed and further diluted (1:10) with a 10% (w/v) hydroxypropyl β cyclodextrin (HBC, Aldrich, Ref No 33,260-7) solution in PBS, where after they are sonicated for 20 seconds.
Aβ42 lowering agents may be administered as a single oral dose given three to four hours before sacrifice and analysis or alternatively could be given over a course of days and the animals sacrificed three to four hours after the final dose is given.
Blood is collected at sacrifice. The blood collection is performed via a heart puncture during anesthesia with a mixture of Ketalar (Ketamin), Rompun (Xylazin 2%) and Atropin (2:1:1) and collected in EDTA treated collection tubes. Blood is centrifuged at 4000 g for 5 minutes at 4° C. and the plasma recovered for analysis. […]

[3] = tested on: Aβ 42; experiment: In vivo Aβ 42 lowering, rat; conditions: oral dose 30 mg/kg at 4 hr time point
Source text: as §1
A typical protocol for measuring Aβ42 lowering in vivo is shown but it is only one of many variations that could be used to optimize the levels of detectable Aβ. […]

SMILES | pEC50 [1] | Mouse Efficacy % Lowering Aβ 42 [2] [%] | Rat Efficacy % Lowering Aβ 42 [3] [%]
CC(C)C[C@@H](C(=O)O)c1cc(Nc2cc(C(F)(F)F)ccc2C(F)(F)F)cc(-c2ccc(C(F)(F)F)cc2)c1 [Compound 46, (R)2-[5-(2,5-Bis-trifluoromethyl-phenylamino)-4′-trifluoromethyl-biphenyl-3-yl]-4-methyl-pentanoic acid] | 7.00 | 18 | 30
CC(C)CC(C(=O)O)c1cc(Oc2cc(F)cc(C(F)(F)F)c2)cc(-c2ccc(Cl)c(C(F)(F)F)c2)c1 (stereo not shown) [Compound 21, 4-Methyl-2-[4′-chloro-3′-trifluoromethyl-5-(3-fluoro-5-trifluoromethylphenoxy)-biphenyl-3-yl]-pentanoic acid] | 6.85 | 25 | –
CC(C)CC(C(=O)O)c1cc(Oc2cc(F)cc(C(F)(F)F)c2)cc(-c2ccc(C(F)(F)F)cc2)c1 (stereo not shown) [Compound 30, 2-[5-(3-Fluoro-5-trifluoromethyl-phenoxy)-4′-trifluoromethyl-biphenyl-3-yl]-4-methyl-pentanoic acid] | 6.48 | 43 | –
